# Measurements published in paper PMC5760651, “Peptidomimetic blockade of MYB in acute myeloid leukemia” (Nature Communications, 2018).
# Non-standard residues stand in square brackets, D forms with d. Residues, ends and D or L forms follow the SMILES beside them.
# Assays:
# MV-411 cells [1] = test: Flow cytometric analysis of apoptosis; format: cell-based, human; conditions: 20 μM, 24 h, flow cytometry, p = 5.4e-3
# Description: Cells were resuspended to a concentration of 1 × 10^6 cells were plated in triplicate in a 12-well tissue culture plate. For assessment of annexin V staining, cells were washed with PBS and then resuspended in PBS with Annexin V-APC (BioLegend) and propidium iodide at a dilution of 1:1000. For intracellular detection of cleaved caspase 3, cells were fixed and permeabilized using the BD Cytofix/Cytoperm Fixation/Permeabilization solution according to the manufacturer’s instructions (BD Biosciences). Cells were then stained using the Alexa Fluor 647-conjugated anti-active caspase-3 (BD Biosciences) at a dilution of 1:50. Cells were incubated for 30 minutes room temperature in the dark, washed, and then analyzed using the BD LSRFortessa cell analyzer. For assessment of differentiation, cells were stained using the anti-human CD14 PE at a dilution of 1:20 (Affymetrix eBiosciences) and anti-human CD66b at a dilution of 1:20 (Affymetrix eBiosciences).
# MV411 and MOLM-13 cells = test: Western blot of BCL2 protein; format: cell-based, human; conditions: 20 μM, 6 hours and 24 hours
# Description: Cells were lysed in RIPA buffer (Thermo Fisher) supplemented with a protease inhibitor mix comprised of AEBSF (0.5 mM concentration, Santa Cruz, SC-202041B), Bestatin (0.01 mM, Fisher/Alfa Aesar, J61106-MD), Leupeptin (0.1 mM, Santa Cruz, SC-295358B), and Pepstatin (0.001 mM, Santa Cruz, SC-45036A). Lysates were mechanically disrupted using Covaris S220 adaptive focused sonicator, according to the manufacturer’s instructions (Covaris, Woburn, CA). Lysates were cleared by centrifugation for 15 min at 18,000 × g and clarified lysates were quantified using the bicinchoninic acid assay (Pierce). Clarified lysates (20 μg of protein) were resolved using sodium dodecyl sulfate-polyacrylamide gel electrophoresis, and electroeluted using the Immobilon FL PVDF membranes (Millipore, Billerica, MA, USA). Membranes were blocked using the Odyssey Blocking buffer (Li-Cor, Lincoln, Nebraska, USA). […] Blotted membranes were visualized using secondary antibodies conjugated to IRDye 800CW or IRDye 680RD (Goat anti-rabbit, 1:15,000, and goat anti-mouse, 1:15,000) and the Odyssey CLx fluorescence scanner, according to manufacturer’s instructions (Li-Cor, Lincoln, Nebraska, USA).
# Supplementary Figure 9. BCL2 expression as measured by Western blot in MV411 and […]
# ImageJ. BCL2 protein expression is quantified as a fraction of its respective PBS control […]
# MYB:CBP/P300 complex = test: Co-immunoprecipitation of MYB:CBP/P300 complex from MV-411 cells; format: binding, human; conditions: 20 μM, immunoprecipitation with anti-MYB, 3 h, 4 °C, western blot
# Description: Cells were lysed in RIPA buffer (Thermo Fisher) supplemented with a protease inhibitor mix comprised of AEBSF (0.5 mM concentration, Santa Cruz, SC-202041B), Bestatin (0.01 mM, Fisher/Alfa Aesar, J61106-MD), Leupeptin (0.1 mM, Santa Cruz, SC-295358B), and Pepstatin (0.001 mM, Santa Cruz, SC-45036A). Lysates were mechanically disrupted using Covaris S220 adaptive focused sonicator, according to the manufacturer’s instructions (Covaris, Woburn, CA). Lysates were cleared by centrifugation for 15 min at 18,000 × g and clarified lysates were quantified using the bicinchoninic acid assay (Pierce). Clarified lysates (20 μg of protein) were resolved using sodium dodecyl sulfate-polyacrylamide gel electrophoresis, and electroeluted using the Immobilon FL PVDF membranes (Millipore, Billerica, MA, USA). Membranes were blocked using the Odyssey Blocking buffer (Li-Cor, Lincoln, Nebraska, USA). The following primary antibodies were used as indicated: anti-MYB (1:1000, 05-175, Millipore), anti-CBP (1:1000, PA1-847, Invitrogen), anti-BCL2 (1:1000, 200-401-222, Rockland), anti-β actin (1:1000, 8H10D10, Cell Signaling). […] Blotted membranes were visualized using secondary antibodies conjugated to IRDye 800CW or IRDye 680RD (Goat anti-rabbit, 1:15,000, and goat anti-mouse, 1:15,000) and the Odyssey CLx fluorescence scanner, according to manufacturer’s instructions (Li-Cor, Lincoln, Nebraska, USA). […]
# MV-411 and MOLM-13 cells = test: qRT-PCR of BCL2 mRNA expression; format: cell-based, human; conditions: 20 μM, 6 h
# Description: RNA was isolated using Trizol reagent according to the manufacturer’s instructions (Life Technologies). Complementary DNA was synthesized using the SuperScript III First-Strand Synthesis system according to the manufacturer’s instructions (Invitrogen). Quantitative real-time PCR was performed using the KAPA SYBR FAST PCR polymerase with 20 ng template and 200 nM primers, according to the manufacturer’s instructions (Kapa Biosystems, Wilmington, MA, USA). PCR primers are listed in Supplementary Table 4. Ct values were calculated using ROX normalization using the ViiA 7 software (Applied Biosystems).
# MV-411 cells [2] = test: H3K27Ac ChIP-PCR at the BCL2 enhancer; format: cell-based, human; conditions: 20 μM, 24 h, ChIP-qPCR, compared to TG3 or untreated control, p = 8.6e-3
# Description: Cross-linking was ended by the addition of 1/20 volume of 2.5 M Glycine for 5 min at room temperature followed by cell lysis and sonication ([…] Covaris sonicator) to obtain 100- to 500-bp chromatin fragments. H3K27Ac Rabbit polyclonal antibody (Abcam, #4729) was conjugated to Protein A and G Dynabeads per manufacturer's instructions (Thermo Fischer Scientific). Lysates were incubated overnight at 4 °C with antibody-conjugated beads in suspension. Precipitates were then washed sequentially with cold washing solution (1% NP-40, […], 50 mM Hepes-KOH, pH 7.6, 500 mM LiCl, 0.7% Na-Deoxycholate) and then washing solution (50 mM Tris-HCL, pH 8.0, 10 mM EDTA, 50 mM NaCl), then eluted in elution buffer (50 mM Tris-HCL, pH 8.0, 10 mM EDTA, 1% SDS). Reversal of crosslinks in elution buffer overnight at 65 °C followed by digestion of RNA and protein using RNase (Roche, Catalog No. 111119915-001) and Proteinase K (Roche, Catalog No. 03115828001). DNA purification was performed using PureLink PCR Purification Kit per manufacturer's protocol (Invitrogen). qPCR was performed as described below.
smiles,measurement,setting,value
CC[C@@H](C)[C@@H](NC(=O)[C@@H](CCCCN)NC(=O)[C@@H](CCC(=O)O)NC(=O)[C@@H](CC(C)C)NC(=O)[C@@H](CCC(=O)O)NC(=O)[C@@H](CC(C)C)NC(=O)[C@@H](CC(C)C)NC(=O)[C@@H](CC(C)C)NC(=O)[C@@H](CCSC)NC(=O)[C@@H](CO)NC(=O)[C@H](NC(=O)[C@@H](CCC(=O)O)NC(=O)[C@@H](CC(N)=O)NC(=O)[C@@H](CCC(=O)O)NC(=O)[C@@H](CC(C)C)NC(=O)[C@@H](CCCCN)NC(C)=O)[C@H](C)O)C(=O)N[C@H](CCCNC(=N)N)C(=O)N[C@H](CCCCN)C(=O)NCC(=O)NCC(=O)N[C@H](CCCNC(=N)N)C(=O)N[C@H](CCCNC(=N)N)C(=O)N[C@H](CCCNC(=N)N)C(=O)N[C@H](CCC(N)=O)C(=O)N[C@H](CCCNC(=N)N)C(=O)N[C@H](CCCNC(=N)N)C(=O)N[C@H](CCCCN)C(=O)N[C@H](CCCCN)C(=O)N[C@H](CCCNC(=N)N)C(=O)NCC(=O)N[C@H](Cc1ccc(O)cc1)C(N)=O [MYBMIM] (Ac-[dK][dL][dE][dN][dE][dT][dS][dM][dL][dL][dL][dE][dL][dE][dK][dI][dR][dK]GG[dR][dR][dR][dQ][dR][dR][dK][dK][dR]G[dY]-NH2),Apoptosis by cell surface annexin V and intracellular caspase 3 cleavage,MV-411 cells [1],significant apoptosis
same,BCL2 protein abundance,MV411 and MOLM-13 cells,significant albeit modest decrease
same,Dissociation of the cellular MYB:CBP/P300 complex,MYB:CBP/P300 complex,significant dissociation
same,BCL2 expression downregulation,MV-411 and MOLM-13 cells,more than two-fold
same,H3K27Ac at the BCL2 enhancer,MV-411 cells [2],significant albeit incomplete reduction
